Laboratory results taken from patent US8652467B2, “Dek protein compositions and methods of using the same” (The Regents of the University of Michigan, priority 2005, dated 2014).
Entries after “also recorded” stand apart in the source; their conditions may differ. Peptide text beside a SMILES is read from it. * marks the point of attachment. Cbz = O=C(OCc1ccccc1)*; CH2F = FC*

Columns and labels:
[1] = tested on: monocyte-derived macrophages (MDM); assay: DEK secretion by serum-differentiated MDM, Western blot of supernatants; format: cell-based, human; conditions: for amount of DEK found in culture supernatants: treatment of MDM with Golgi inhibitors
Procedure: MDM were prepared as described (See, e.g., Lane et al., J Immunol 163, 3653-61. (1999)). Briefly, heparinized venous blood was collected from healthy volunteers, and peripheral blood mononuclear cells (PBMC) were separated by Ficoll-Hypaque (Amersham Pharmacia Biotech AB, Uppsala, Sweden) density gradient centrifugation. MDM were purified by adherence to plastic for 2 h at 37° C. at a concentration of 5×10^5/ml. Adherent cells were consistently >90% monocytes (See, e.g., Lane et al., J Immunol 163, 3653-61. (1999)). […]
MDMs were maintained for 12 h in serum-free conditioned media with added dexamethasone, (0.5 μM or 1 μM) (Sigma St. Louis, Mo.), cyclosporin A (CsA, 1 μg/ml) (Sigma St. Louis, Mo.), carbonyl cyanide chlorophenyl hydrazone (CCCP) (10 μM) (Sigma St. Louis, Mo.), IL-8 (10 ng/ml) (R&D Systems, Minneapolis, Minn.) or TBB (See, e.g., Sarno et al., Pharmacol Ther 93, 159-68 (2002)) for 3 hours. Following 3 washes with PBS, serum-free media was added for 3 to 12 h before harvest. The viability of the cells incubated in serum-free medium with or without added drugs was >95% at 48 h as measured by MTT-based colorimetric assay (Boehringer Mannheim, Indianapolis, Ind.) and by LDH release as previously described (See, e.g., Punturieri et al., J Exp Med 192, 789-99. (2000)). Supernatants were collected and centrifuged for 20 min at 200×g to remove cell debris, then concentrated by a centrifugal filter device (Millipore) in the presence of a protease inhibitor cocktail (Boehringer Mannheim, Indianapolis, Ind.). Equal amounts of protein (20 μg) were loaded under reducing conditions and proteins were separated by 10% SDS-PAGE. The proteins were subsequently transferred to nitrocellulose and probed with mouse monoclonal anti-DEK or rabbit or goat polyclonal anti-DEK antibodies. The bound primary antibody was then detected with horseradish peroxidase-conjugated goat anti-mouse or anti-rabbit secondary antibody using the Super Signal West Pico system (Pierce Chemical Co, Rockford, Ill.).

[2] = tested on: Jurkat control and DEK-knockdown cells; assay: DEK knock-down and DNA damage assay (Annexin-V); format: cell-based; conditions: increasing doses, 24 hours
Procedure: Jurkat and HeLa S3 cells were transduced with either an empty lentiviral vector, or a vector containing two DEK-specific shRNAs. Control and DEK-knockdown Jurkat cells were exposed to increasing doses of UVC radiation. Twenty-four hours after irradiation, the percentage of apoptotic cells was determined by staining with Annexin-V and analysis by flow cytometry. HeLa S3 control and DEK-knockdown cells were similarly treated with increasing doses of UVC radiation. Cells were fixed, permeabilized, and stained with R-phycoerythrin labeled antibodies against the active form of caspase-3 twenty-four hours after irradiation. The percentage of cells expressing the active form of caspase-3 was determined by flow cytometry. Jurkat control and DEK-knockdown transduced cells were treated with either etoposide or cisplatin at increasing doses and 24 hours later the percentage of apoptotic cells was determined by staining with Annexin-V.

Jurkat cells = assay: FAS-L induced apoptosis assay, DEK release into cytoplasm; format: cell-based; conditions: Fas Ligand-mediated apoptosis, 3% FAS-L, 180 min
Procedure: Jurkat cells were washed with serum-free RPMI medium and incubated with 3% FAS-L without or with the broad-spectrum caspase inhibitor zVAD for 180 min. Cells were fractionated and the cytoplasm was separated by SDS-PAGE followed by immunoblotting with DEK specific antibodies (mouse monoclonal, BD Bioscience). As a loading control the same blot was reprobed with specific antibodies to beta-actin.

[3] = tested on: purified neutrophils (PMN); assay: In vitro migration assay with purified neutrophils; format: cell-based, human; conditions: SB225002 3 μM, 1 h
Procedure: Purified neutrophils (PMN) were treated with IL-8 (50 nM), the CXCR2 small molecule inhibitor SB225002 (3 μM), DEK (79 nM), IL-8 plus SB225002, or DEK plus SB225002 for 5 min at room temperature before and then during the migration assay. After 1 h, the number of fluorescently labeled migrating cells in the lower chamber was determined at 485 nM/535 nm wavelengths by Tecan GENios (Phenix, Austria). […] The results are expressed as the average fold increase in the number of cells migrating toward DEK compared to control wells containing medium only. White blood cells were isolated from venous blood from healthy donors as described above, and were depleted of monocytes by adherence to plastic for 2 h as described in the Cell Preparation section. […] The cells were washed and resuspended at 1×10^6 cells/ml in serum-free RPMI medium, and 1×10^5 labeled cells in 100 μl were added to the upper chamber of a 24-well Transwell chemotaxis insert with pore size of 3 μm or 5 μm (Corning, N.Y.). The lower chambers contained serum-free RPMI medium alone, recombinant DEK made in baculovirus, or a deletion mutant of the β form of human GLI-2 (See, e.g., Smith et al., J Virol 75, 2301-13 (2001)) produced in baculovirus as the control protein. After 30 min to 1 h, the number of fluorescently labeled migrating cells in the lower chamber was determined at […] wavelength using a Tecan GENios plate-reader (Phenix, Austria). The results were expressed as the average fold increase of the number of cells migrating toward lower chambers containing DEK divided by the number of cells migrating toward the control wells (medium alone). Forty ml of venous blood was collected from healthy volunteers into a 50 ml sterile syringe containing a mixture of 7 ml 0.25 M Citrate (0.17 M NA Citrate and 0.083 M Citric Acid) and 6% Dextran in PBS buffer. The blood was incubated for 30 min at room temperature and the upper phase was collected and further separated by Ficoll as described above. The neutrophil fraction was collected and washed with HBSS buffer and then pelleted again. […]

CXCR2 = molecular target: T1, CXCR2 (Homo sapiens, UniProt P25025); conditions: at low concentrations; cited from earlier work
T1 sequence (P25025 1-360): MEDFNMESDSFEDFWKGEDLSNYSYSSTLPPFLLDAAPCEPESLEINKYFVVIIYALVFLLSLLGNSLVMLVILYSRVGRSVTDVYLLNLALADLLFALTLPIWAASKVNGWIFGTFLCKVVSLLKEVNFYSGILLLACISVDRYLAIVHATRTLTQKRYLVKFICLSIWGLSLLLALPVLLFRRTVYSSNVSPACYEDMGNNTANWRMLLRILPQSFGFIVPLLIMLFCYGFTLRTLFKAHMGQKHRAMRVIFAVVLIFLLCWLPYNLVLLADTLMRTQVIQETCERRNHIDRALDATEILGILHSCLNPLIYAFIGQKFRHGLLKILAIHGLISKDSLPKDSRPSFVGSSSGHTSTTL

[4] = MDM in 10% human serum, TNF-α 5-100 ng/ml, IFN-γ 10-100 ng/ml, MCP-1 10-100 ng/ml, LPS 500-1000 ng/ml alone and with IFN-γ

For “MCP-1: monocyte chemoattractant protein-1”, the “stimulation of DEK secretion” value [1, 4] was “None of the inflammatory mediators listed above reproducibly stimulated DEK secretion”.

In the case of `CC[C@@]1([C@@H]2O[C@@H]([C@H]3O[C@@](O)(CO)[C@H](C)C[C@@H]3C)C[C@@H]2C)CC[C@H]([C@]2(C)CC[C@]3(C[C@H](O)[C@@H](C)[C@@H]([C@@H](C)[C@@H](OC)[C@H](C)C(=O)O)O3)O2)O1` [monensin], the “amount of DEK found in culture supernatants” value [1] is reported as “does not alter”.

With `N.N.[Cl][Pt][Cl]` [cisplatinum] the “sensitivity of DEK knock-down cells vs control cells (apoptosis)” value [2] was “consistently more sensitive”.

For tunicamycin, the DEK secretion ([1]; treatment of MDM with tunicamycin (inhibits N-glycosylation)) was “not inhibited”.

For `C[C@H]1CCC/C=C/[C@@H]2C[C@H](O)C[C@H]2[C@H](O)/C=C/C(=O)O1` [Brefeldin A], the “amount of DEK found in culture supernatants” value [1] was “does not alter”.

With TNF-α the “stimulation of DEK secretion” value [1, 4] was “None of the inflammatory mediators listed above reproducibly stimulated DEK secretion”.

For `CC(NC(=O)C(NC(=O)OCc1ccccc1)C(C)C)C(=O)NC(CC(=O)O)C(=O)CF` (stereo not drawn) [ZVAD] (Cbz-Val-Ala-Asp-CH2F; configuration not given here), the “release of DEK into the cytoplasm” value (Jurkat cells) was “blocks”.

For “IL-8: recombinant IL-8, chemokine, neutrophil chemoattractant”, the “stimulation of DEK secretion” value ([1]; IL-8 10 ng/ml, 12 h, day 12 MDM grown in 10% human serum) was “induces the secretion of DEK; also recorded: effective in stimulating vigorous secretion of DEK”.

With lipopolysaccharide [LPS] the “stimulation of DEK secretion” value [1, 4] was “None of the inflammatory mediators listed above reproducibly stimulated DEK secretion”.

In the case of `Brc1c(Br)c(Br)c2[nH]nnc2c1Br` [TBB, 4,5,6,7-tetrabromobenzotriazole], the “inhibition of DEK secretion” value ([1]; 12-day MDM treated with TBB) is reported as “complete inhibition”, the “amount of extracellular DEK from TBB-treated cells vs untreated cells” value ([1]; 12 hours after removal of TBB) is reported as “significantly lower” and the “DEK in supernatants collected during the first 3 hours of incubation in serum free media” value ([1]; three-hour treatment of 8-day MDM with TBB (50 μM)) is reported as “absent”.

For `COc1cc([C@@H]2c3cc4c(cc3[C@@H](O[C@@H]3O[C@@H]5CO[C@@H](C)O[C@H]5[C@H](O)[C@H]3O)[C@H]3COC(=O)[C@H]23)OCO4)cc(OC)c1O` [etoposide], the “sensitivity of DEK knock-down cells vs control cells (apoptosis)” value [2] was “consistently more sensitive”.

In the case of `O=C(Nc1ccc([N+](=O)[O-])cc1O)Nc1ccccc1Br` [SB225002], the “neutrophil migration toward DEK” value ([3]; DEK 79 nM) is listed as “significantly blocked; also recorded: virtually complete inhibition”, the “neutrophil migration toward IL-8” value ([3]; IL-8 50 nM) is listed as “significantly blocked; also recorded: virtually complete inhibition” and the receptor selectivity (CXCR2) is listed as “selective for CXCR2”.

B1: IFN-γ: inflammatory mediator (protein, UniProt P01579 24-161, looked up)
Interferon gamma: QDPYVKEAENLKKYFNAGHSDVADNGTLFLGILKNWKEESDRKIMQSQIVSFYFKLFKNFKDDQSIQKSVETIKEDMNVKFFNSNKKKRDDFEKLTNYSVTDLNVQRKAIHELIQVMAELSPAAKTGKRKRSQMLFRG
In the case of B1, the “stimulation of DEK secretion” value [1, 4] is reported as “None of the inflammatory mediators listed above reproducibly stimulated DEK secretion”.
